The text below walks through data of article PMC7956174, “Probing the Role of the Conserved Arg174 in Formate Dehydrogenase by Chemical Modification and Site-Directed Mutagenesis” (Molecules, 2021).

The Ki is a measure of affinity in units of concentration, obtained from inhibition or displacement. The Km is the concentration of substrate that gives half-maximal velocity.

Where two headings read alike, the source gives them in different places.

Data set [1] deals with T1, CbFDH (Candida boidinii formate dehydrogenase) ([Candida] boidinii, UniProt O13437).
T1 construct: gene FDH1; no tag told
T1 sequence (O13437 1-364): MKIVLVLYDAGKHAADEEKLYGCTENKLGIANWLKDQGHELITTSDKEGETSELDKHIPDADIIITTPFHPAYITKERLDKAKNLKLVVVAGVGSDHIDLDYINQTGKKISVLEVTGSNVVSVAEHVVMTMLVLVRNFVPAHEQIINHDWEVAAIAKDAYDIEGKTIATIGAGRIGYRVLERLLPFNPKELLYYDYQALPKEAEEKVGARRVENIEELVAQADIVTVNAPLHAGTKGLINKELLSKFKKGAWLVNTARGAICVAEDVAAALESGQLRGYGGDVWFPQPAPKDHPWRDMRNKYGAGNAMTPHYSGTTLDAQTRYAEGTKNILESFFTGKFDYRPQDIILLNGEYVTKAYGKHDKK
The data set can be described thus: steady-state inhibition kinetics. It is filed as biochemical. The text has this: steady-state inhibition kinetics on CbFDH (Candida boidinii formate dehydrogenase)

Substrate in the data set “steady-state kinetics”: O=CO
The data set can be described thus: steady-state kinetics. It is filed as biochemical, [Candida] boidinii. The settings on record: 0.1 M potassium phosphate pH 7.5, 25 °C, co-substrate NAD+. The text has this:
steady-state kinetics on CbFDH (Candida boidinii formate dehydrogenase)

As for `Nc1ncnc2c1ncn2[C@@H]1O[C@H](COP(=O)(O)O)[C@@H](O)[C@H]1O` [AMP], in data set [1] (read-out: Ki (mM) (AMP)), the Ki was determined as 1.6 ± 0.1 mM.

Take `NC(=O)C1=CN([C@@H]2O[C@H](COP(=O)(O)OP(=O)(O)OC[C@H]3O[C@@H](n4cnc5c(N)ncnc54)[C@H](O)[C@@H]3O)[C@@H](O)[C@H]2O)C=CC1` [NADH]: in data set [1] (read-out: Ki (mM) (NADH)), the Ki was found to be 0.03 ± 0.005 mM.

B1: CbFDH (Candida boidinii formate dehydrogenase) ([Candida] boidinii) (protein)
chain: T1 sequence (O13437 1-364)
notes: no tag told
With B1, the Km in the data set “steady-state kinetics” turned out to be 2400 ± 100 µM.
